# According to US20080070867A1, “2-Imidazolone and 2-Imidazolidinone Heterocyclic Inhibitors of Tyrosine Phosphatases” (Metabasis Therapeutics, Inc., priority 2005, published 2008):
# Molecular target: T1, Human recombinant PTP-1B (Homo sapiens, UniProt P18031)
# T1 construct: Human recombinant PTP-1B, containing amino acids 1-321, fused to GST enzyme; GST (glutathione S-transferase)
# T1 sequence (P18031 1-321): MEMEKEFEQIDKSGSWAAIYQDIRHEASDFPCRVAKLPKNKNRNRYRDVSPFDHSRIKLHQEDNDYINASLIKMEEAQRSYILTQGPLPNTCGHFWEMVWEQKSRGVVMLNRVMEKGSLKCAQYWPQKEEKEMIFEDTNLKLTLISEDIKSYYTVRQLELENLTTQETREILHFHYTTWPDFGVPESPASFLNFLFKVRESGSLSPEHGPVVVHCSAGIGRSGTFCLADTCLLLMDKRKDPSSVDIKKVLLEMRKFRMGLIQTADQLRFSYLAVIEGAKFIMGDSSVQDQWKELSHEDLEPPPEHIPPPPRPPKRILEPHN
# Assay: Assay for PTP-1B Activity (pNPP substrate)
# Type: biochemical
# Conditions: human recombinant PTP-1B (1-321) GST fusion, 2 mM pNPP, pH 7.4, 30° C., 20 min; read-out: Activity Code (IC50 range)
# How it was run: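 GST-fused human PTP-1B (aa 1-321) hydrolysed 2 mM pNPP in 50 mM HEPES pH 7.4, 100 mM NaCl, 2 mM EDTA, 3 mM DTT for 20 min at 30 °C, after a 2 min compound premix. K2CO3 stopped the reaction, with pNP read at 405 nm. Initial rate was plotted against inhibitor concentration.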
row,IC50,SMILES
1,2500 to 25000 nM,"CC(C)(C)C(=O)OCOP(=O)(O)C(F)(F)c1ccc(Cn2c(-c3ccc(S(C)(=O)=O)cc3)c[nH]c2=O)cc1Br [Compound 64, 2,2-Dimethyl-propionic acid ({2-bromo-4-[5-(4-methanesulfonyl-phenyl)-2-oxo-2,3-dihydro-imidazol-1-ylmethyl]-phenyl}-difluoro-methyl)-hydroxy phosphinoyloxymethyl ester]"
2,> 25000 nM,"CCOC(=O)n1cc(-c2ccc(C(=O)OC)cc2)n(Cc2ccc(C(F)(F)P(=O)(O)OCOC(=O)C(C)(C)C)c(Br)c2)c1=O [Compound 66, 3-(3-Bromo-4-{[(2,2-dimethyl-propionyloxy-methoxy)-hydroxy-phosphoryl]-difluoro-methyl}-benzyl)-4-(4-methoxycarbonyl-phenyl)-2-oxo-2,3-dihydro-imidazole-1-carboxylic acid ethyl ester]"
3,250 to 2500 nM,"O=C(O)c1ccc(-c2cn(Cc3ccc(C(F)(F)P(=O)(O)O)c(Br)c3)c(=O)n2Cc2ccccc2)cc1 [Compound 68, 4-{3-Benzyl-1-[3-bromo-4-(difluoro-phosphono-methyl)-benzyl]-2-oxo-2,3-dihydro-1H-imidazol-4-yl}-benzoic acid]"
4,> 25000 nM,"CC(C)OC(=O)OC(C)OP(=O)(O)C(F)(F)c1ccc(Cn2c(-c3ccc(S(C)(=O)=O)cc3)cn(C)c2=O)cc1Br (stereo not shown) [Compound 70, ({2-Bromo-4-[5-(4-methanesulfonyl-phenyl)-3-methyl-2-oxo-2,3-dihydro-imidazol-1-ylmethyl]-phenyl}-difluoro-methyl)-phosphonic acid mono-(1-isopropoxy-carbonyloxy-ethyl) ester]"
5,2500 to 25000 nM,"O=c1n(Cc2ccccc2)ccn1Cc1ccc(C(F)(F)P(=O)(O)O)c(Br)c1 [Compound 71, {[4-(3-Benzyl-2-oxo-2,3-dihydro-imidazol-1-ylmethyl)-2-bromo-phenyl]-difluoro-methyl}-phosphonic acid]"
6,2500 to 25000 nM,"CC(C)OC(=O)OC(C)OP(=O)(O)C(F)(F)c1ccc(Cn2c(-c3ccc(Cl)cc3)cn(Cc3ccccc3)c2=O)cc1Br (stereo not shown) [Compound 72, ({4-[3-Benzyl-5-(4-chloro-phenyl)-2-oxo-2,3-dihydro-imidazol-1-ylmethyl]-2-bromo-phenyl}-difluoro-methyl)-phosphonic acid mono-(1-isopropoxy-carbonyloxy-ethyl) ester]"
7,< 99 nM,"CC(C)(Oc1ccc(-c2cn(C3CC3)c(=O)n2Cc2ccc(C(F)(F)P(=O)(O)O)c(Br)c2)cc1)C(=O)O [Compound 74, 2-(4-{3-[3-Bromo-4-(difluoro-phosphono-methyl)-benzyl]-1-cyclopropyl-2-oxo-2,3-dihydro-1H-imidazol-4-yl}-phenoxy)-2-methyl-propionic acid]"
8,100 to 249 nM,"CC(C)OC(=O)OC(C)OP(=O)(O)C(F)(F)c1ccc(Cn2c(-c3ccc(S(C)(=O)=O)cc3)cn(Cc3ccccc3)c2=O)cc1Br (stereo not shown) [Compound 79, ({4-[3-Benzyl-5-(4-methanesulfonyl-phenyl)-2-oxo-2,3-dihydro-imidazol-1-ylmethyl]-2-bromo-phenyl}-difluoro-methyl)-phosphonic acid mono-(1-isopropoxy-carbonyloxy-ethyl) ester]"

# Further lines, the compound ahead of its results:
row,SMILES,IC50
1,"COC(=O)c1cccc(-c2cn(C3CC3)c(=O)n2Cc2ccc(C(F)(F)P(=O)(O)O)c(Br)c2)c1 [Compound 62, 3-{3-[3-Bromo-4-(difluoro-phosphono-methyl)-benzyl]-1-cyclopropyl-2-oxo-2,3-dihydro-1H-imidazol-4-yl}-benzoic acid methyl ester]",250 to 2500 nM
2,"O=C(O)c1cccc(-c2cn(C3CC3)c(=O)n2Cc2ccc(C(F)(F)P(=O)(O)O)c(Br)c2)c1 [Compound 63, 3-{3-[3-Bromo-4-(difluoro-phosphono-methyl)-benzyl]-1-cyclopropyl-2-oxo-2,3-dihydro-1H-imidazol-4-yl}-benzoic acid]",250 to 2500 nM
3,"CC(C)OC(=O)OC(C)OP(=O)(O)C(F)(F)c1ccc(Cn2c(-c3ccc(S(C)(=O)=O)cc3)c[nH]c2=O)cc1Br (stereo not shown) [Compound 65, ({2-Bromo-4-[5-(4-methanesulfonyl-phenyl)-2-oxo-2,3-dihydro-imidazol-1-ylmethyl]phenyl}-difluoro-methyl) phosphonic acid mono-(1-isopropoxy-carbonyloxy-ethyl) ester]",2500 to 25000 nM
4,"COC(=O)c1ccc(-c2cn(Cc3ccc(C(F)(F)P(=O)(O)O)c(Br)c3)c(=O)n2Cc2ccccc2)cc1 [Compound 67, 4-{3-Benzyl-1-[3-bromo-4-(difluoro-phosphono-methyl)-benzyl]-2-oxo-2,3-dihydro-1H-imidazol-4-yl}-benzoic acid methyl ester]",250 to 2500 nM
5,"Cn1cc(-c2ccc(S(C)(=O)=O)cc2)n(Cc2ccc(C(F)(F)P(=O)(O)OCOC(=O)C(C)(C)C)c(Br)c2)c1=O [Compound 69, 2,2-Dimethyl-propionic acid ({2-bromo-4-[5-(4-methanesulfonyl-phenyl)-3-methyl-2-oxo-2,3-dihydro-imidazol-1-ylmethyl]-phenyl}-difluoro-methyl)-hydroxy-phosphinoyloxymethyl ester]",2500 to 25000 nM
6,"CCOC(=O)C(C)(C)Oc1ccc(-c2cn(C3CC3)c(=O)n2Cc2ccc(C(F)(F)P(=O)(O)O)c(Br)c2)cc1 [Compound 73, 2-(4-{3-[3-Bromo-4-(difluoro-phosphono-methyl)-benzyl]-1-cyclopropyl-2-oxo-2,3-dihydro-1H-imidazol-4-yl}-phenoxy)-2-methyl-propionic acid ethyl ester]",100 to 249 nM
7,"CCOC(=O)n1cc(-c2ccc(C#N)cc2)n(Cc2ccc(C(F)(F)P(=O)(O)O)c(Br)c2)c1=O [Compound 75, 3-[3-Bromo-4-(difluoro-phosphono-methyl)-benzyl]-4-(4-cyano-phenyl)-2-oxo-2,3-dihydro-imidazole-1-carboxylic acid ethyl ester]",100 to 249 nM
8,"CC(C)(C)C(=O)OCOP(=O)(O)C(F)(F)c1ccc(Cn2c(-c3ccc(S(C)(=O)=O)cc3)cn(Cc3ccccc3)c2=O)cc1Br [Compound 76, 2,2-Dimethyl-propionic acid ({4-[3-benzyl-5-(4-methanesulfonyl-phenyl)-2-oxo-2,3-dihydro-imidazol-1-ylmethyl]-2-bromo-phenyl}-difluoro-methyl)-hydroxy-phosphinoyloxymethyl ester]",250 to 2500 nM
9,"CC(C)(C)C(=O)OCOC(=O)COc1ccc(-c2cn(C3CC3)c(=O)n2Cc2ccc(C(F)(F)P(=O)(O)OCOC(=O)C(C)(C)C)c(Br)c2)cc1 [Compound 77, 2,2-Dimethyl-propionic acid 2-{4-[3-(3-bromo-4-{[(2,2-dimethyl-propionyloxy-methoxy)-hydroxy-phosphoryl]-difluoro-methyl}-benzyl)-1-cyclopropyl-2-oxo-2,3-dihydro-1H-imidazol-4-yl]-phenoxy}-acetoxymethyl ester]",250 to 2500 nM
10,"N#Cc1ccc(-c2c[nH]c(=O)n2Cc2ccc(C(F)(F)P(=O)(O)O)c(Br)c2)cc1 [Compound 78, ({2-Bromo-4-[5-(4-cyano-phenyl)-2-oxo-2,3-dihydro-imidazol-1-ylmethyl]-phenyl}-difluoro-methyl)-phosphonic acid]",100 to 249 nM
11,"Cn1cc(-c2ccc(C(=O)OCOC(=O)C(C)(C)C)cc2)n(Cc2ccc(C(F)(F)P(=O)(O)OCOC(=O)C(C)(C)C)c(Br)c2)c1=O [Compound 80, 4-[3-(3-Bromo-4-{[(2,2-dimethyl-propionyloxy-methoxy)-hydroxy-phosphoryl]-difluoro-methyl}-benzyl)-1-methyl-2-oxo-2,3-dihydro-1H-imidazol-4-yl]-benzoic acid 2,2-dimethyl-propionyloxymethyl ester]",2500 to 25000 nM
